Laboratory results published in US20090018021A1, “Methyl jasmonate decreases fruit detachment force of grapes” (Regents of the University of California, priority 2006, published 2009).
Several values for one entry are separate records, joined by “and”; a condition that tells them apart may be missing. Equal entries are not always repeated. Blank lines part the entries; values can stand above or below the compound they belong to.

Tests used:
[1] = system: Thompson Seedless grapevines; assay: Fruit detachment force (FDF), Thompson Seedless experiment; type: in vivo, grape; conditions: for FDF: ten days after treatment
Procedure: (§1) An experiment was conducted in a 40-year-old Thompson Seedless vineyard at the Kearney Agricultural Center in Parlier, California. The site was typical of conventional raisin vineyards, with head-trained, cane-pruned vines on a two-wire T-shaped trellis with a 0.6 m cross arm. The soil was a deep Hanford fine sandy loam.
(§2) The vineyard was divided into plots consisting of vine sections (within-row spaces between two adjacent vine trunks) of uniform appearance and crop load. Each plot was surrounded by guard vines within and between rows. Treatments consisted of 26 different solutions made up of various potential abscission agents (Table 1). Because the concentrations varied widely between agents, each solution was considered a different treatment, and a randomized complete block design was used. All treatments, except for coronatine, were replicated four times. Due to a lack of material, coronatine was only applied to two plots; therefore, data from that treatment were not subjected to statistical analysis though observations were made.
(§3) Composite berry samples were collected weekly to monitor soluble solids accumulation by the fruits. Samples consisted of about 100 berries collected from the top, middle and bottom of about 33 randomly selected clusters. Berries were homogenized in a blender, their juice filtered, and soluble solids measured with a temperature compensating digital refractometer (Palette 101, Atago, Farmingdale, N.Y.). Once the fruits amassed sufficient soluble solids for raisin making (>19 Brix), abscission agents were dissolved or dispersed in water with adjuvant added (0.1%, v/v, Latron B-1956™, Britz, Parlier, Calif.) except MeJA solutions which contained 0.2% adjuvant. Control solutions contained the adjuvant only (0.2% v/v). Immediately after their preparation, solutions were applied to the vines of each plot with a gasoline-powered back-pack sprayer (Solo, Newport News, R.I.) until runoff. Vines within harvest pruned (HP) plots were not treated with any solutions, but their canes were severed on the same day that solutions were applied.
(§4) The soil surface within each plot was covered with ground cloth to collect any berries that might fall from the canopy. […] In those plots and in the control and HP plots, all abscised berries were collected from the ground cloth into paper bags and placed in a forced air oven (60 C) until they reached a constant weight. Clusters of grapes on vines from all the plots were carefully harvested and brought into a laboratory where fruit detachment force (FDF) measurements were made. Any grapes that detached from the vines at harvest were considered to be retained by the vine until harvest. These berries were collected into paper bags and placed in a forced air oven to dry.
(§5) Three representative clusters were selected from all the clusters of each plot and ten rachis sections from the top, middle, and bottom of the three clusters were removed by cutting the rachis with shears. A berry from each section was placed in a jig attached to a force gauge (DPS-11, Imada Inc., Northbrook, Ill.). The rachis was pulled parallel to the fruit axis until it separated from the fruit. The force required to detach each berry from the rachis in grams-force was recorded as the fruit detachment force. The condition of each detached berry was noted, and the berries were placed in paper bags along with all the other berries that were picked from that plot. These berries were also placed in the forced air oven and dried to a constant weight. The proportion of berries that abscised from the vine was calculated on a dry weight basis by dividing the dry weight of the abscised berries in each plot by the combined weight of the retained and abscised berries in that plot. Finally, canopy damage in each plot was inspected visually and assigned a rating of 0 (no obvious foliar damage), 1 (appearance of slight foliar damage), 2 (appearance of moderate foliar damage), or 3 (appearance of severe foliar damage).

[2] = system: Thompson Seedless grapevines; assay: Visual canopy damage rating, Thompson Seedless experiment; type: in vivo, grape; conditions: ten days after treatment
Description: as §2
Composite berry samples were collected weekly to monitor soluble solids accumulation by the fruits. Samples consisted of about 100 berries collected from the top, middle and bottom of about 33 randomly selected clusters. […] Control solutions contained the adjuvant only (0.2% v/v). Immediately after their preparation, solutions were applied to the vines of each plot with a gasoline-powered back-pack sprayer (Solo, Newport News, R.I.) until runoff. Vines within harvest pruned (HP) plots were not treated with any solutions, but their canes were severed on the same day that solutions were applied.
as §5

citrus trees = conditions: cited from earlier work
[3] = system: Thompson Seedless grapevines; assay: Fruit drop (berry abscission) from treated vines, Thompson Seedless experiment; type: in vivo, grape; conditions: for Berry abscission observed in plots: ten days after treatment, all 26 solutions compared; for Percent fruit drop (dry wt/dry wt): 10 days after treatment
Procedure: as §1, §2, §3, §4, §5

[4] = system: Thompson Seedless grapevines; assay: Bud break and shoot growth six months after treatment, Thompson Seedless experiment; type: in vivo, grape; conditions: 2000 ppm, evaluated six months later
Procedure: Each plot was inspected again six months later when bud break and shoot growth were evaluated. To evaluate bud break, plots received one of the following scores; 0=shoots emerged from 0-20% of nodes; 1=shoots emerged from 20-40% of nodes, 2=shoots emerged from 40-60% of nodes, 3=shoots emerged from 60-80% of nodes, or 4=shoots emerged from 80-100% of nodes. Shoot growth in each plot was also evaluated on a five-point scale, based on the proportion of shoots that had progressed to the five-leaf stage (Eichorn-Lorenz stage 12; Eichorn and Lorenz, Phaenologische Entwicklungsstadien der Rebe. Nachrichtenbl. Deut. Pflanzenschutzd. (Braunschweig) 29:119-120 (1977)).

[5] = system: Cabernet Sauvignon grapevines; assay: Fruit detachment force and fruit drop, Cabernet Sauvignon; type: in vivo, grape; conditions: 4500 ppm, 14 DAT
Procedure: (§6) An experiment was conducted in a nine-year-old vineyard of own-rooted Cabernet Sauvignon and Merlot grapevines on a vertical two-wire […]. Whole vines were sprayed to runoff on Day 0 with solutions containing 0 or 4500 ppm MeJA and an adjuvant (Latron B-1956; 0.2% v/v) in a completely randomized design replicated four times. On 14 DAT, four representative clusters were collected from each of four vines and ten rachis sections were prepared from each cluster. Fruit detachment force was measured from berries attached to each section, as described previously. Condition of the detached berries was noted, and all the berries from each cluster were counted, weighed, and homogenized in a blender. The juice from each sample was filtered and soluble solids, pH, and titratable acidity of the filtered juices were determined using standard methods. All data were subjected to analysis of variance using the general linear models procedure (PROC GLM) of SAS statistical software (SAS Inst., Cary, N.C.). Duncan's New Multiple Range Test was used to separate treatment means.

Merlot grapevines = assay: Fruit detachment force and fruit drop, Merlot; type: in vivo, grape; conditions: 4500 ppm, 14 DAT
Procedure: as §6

Crimson Seedless grapes = assay: Abscission and fruit detachment force, Crimson Seedless experiment; type: in vivo, grape
Procedure: An experiment was conducted in a fourteen-year-old vineyard of own-rooted Crimson Seedless grapes on an open-gable trellis. Individual clusters of grapes were sprayed to runoff with one of four solutions containing 0, 1125, 2250, or 4500 ppm MeJA and an adjuvant (0.2% v/v, Latron-B 1956). On Day 0, treatments were applied in a randomized, complete block design with clusters as observational units, and vines as blocks. Each spray treatment was applied to 4 replicate clusters. During treatment, clusters were surrounded with plastic shields to protect other clusters from overspray and runoff. The day after treatment, each cluster was enclosed in a plastic mesh bag to collect any berries that might abscise. Clusters were harvested 14 DAT. Ten rachis sections were collected from each cluster and FDF was measured as described previously. The condition of the detached berries was noted, and the berries from each cluster were then separately weighed and homogenized in a blender. Juices were filtered and soluble solids, pH, and titratable acidity of the filtered juices were determined using standard methods.
All data were subjected to analysis of variance using the general linear models procedure (PROC GLM) of SAS statistical software (SAS Inst., Cary, N.C.). Duncan's New Multiple Range Test was used to separate treatment means. […]

SMILES: Cc1n[nH]c(Cl)c1[N+](=O)[O-] [CMNP, 5-chloro-3-methyl-4-nitro-1H-pyrazole]
FDF ([1]; 20 ppm): 0.244 cd kg
FDF ([1]; 200 ppm): 0.156 fg·kg
FDF ([1]; 1000 ppm): 0.161 fg·kg
FDF ([1]; 2000 ppm): 0.182 ef kg
Canopy damage (0-3; none-severe) ([2]; 20 ppm): 1.25 cde
Canopy damage (0-3; none-severe) ([2]; 200 ppm): 1.25 bcd
Canopy damage (0-3; none-severe) ([2]; 1000 ppm): 1.75 bc
Canopy damage (0-3; none-severe) ([2]; 2000 ppm): 2.75 a

SMILES: CC[C@H]1C=C(C(=O)N[C@@]2(C(=O)O)C[C@@H]2CC)[C@H]2CCC(=O)[C@H]2C1 [Coronatine]
Defoliation expected (citrus trees; citrus (Burns et al., 2003)): chlorosis. Expect ~10% defoliation.
Fruit drop (observation, not statistically analysed) ([3]; 200 ppm, two plots only, 10 DAT): fruit drop appeared similar to that of vines treated with 2250 ppm MeJA
Berry abscission observed in plots [3]: berry abscission was only observed in plots treated with MeJA or coronatine

Appearance of shoots [4]: cupped leaves and short internodes
SMILES: CC1(C)OC[C@@H]2O[C@@]3(C(=O)O)OC(C)(C)O[C@H]3[C@@H]2O1 [Dikegulac]
Leaf loss expected (citrus trees; citrus, at certain times of the season (Pozo et al, 2004)): (Pozo et al, 2004). Expect 15-20%
FDF ([1]; 20 ppm): 0.291 abc kg
FDF ([1]; 200 ppm): 0.27 ab kg
FDF ([1]; 1000 ppm): 0.288 ab kg
FDF ([1]; 2000 ppm): 0.176 efg kg
Canopy damage (0-3; none-severe) ([2]; 20 ppm): 1.00 cd
Canopy damage (0-3; none-severe) ([2]; 200 ppm): 1.25 bcd
Canopy damage (0-3; none-severe) ([2]; 1000 ppm): 0.5
Canopy damage (0-3; none-severe) ([2]; 2000 ppm): 1.50 bcd

SMILES: CC/C=C\CC1C(=O)CCC1CC(=O)OC (stereo not drawn) [MeJA, methyl jasmonate]
Fruit drop (appeared, not measured) [5]: less than 10%
Reduction of FDF compared to non-treated vines [5]: 66%
Fruit drop (appeared, not measured) (Merlot grapevines): less than 10%
Reduction of FDF compared to non-treated vines (Merlot grapevines): 75%
FDF of berries retained after harvest versus concentration applied (Crimson Seedless grapes; 14 DAT, 0-4500 ppm): FDF decreased as a linear function of the concentration of MeJA applied
Abscission of grapes from clusters (Crimson Seedless grapes; within 14 DAT, clusters sprayed with 1125, 2250 or 4500 ppm): did not abscise from any clusters
Fruit on treated trees dropped (citrus trees; citrus trees, 2250-4500 ppm, within 10 DAT (Hartmond et al. 2000)): about 20%
FDF less than fruit from non-treated trees (citrus trees; citrus trees, solutions of 2250-4500 ppm (Hartmond et al. 2000)): 75-80%
FDF ([1]; 45 ppm): 0.169 fg·kg
FDF ([1]; 450 ppm): 0.124 gh kg
FDF ([1]; 2250 ppm): 0.079 hi kg
FDF ([1]; 4500 ppm): 0.052 i kg
Reduction of FDF compared with cane severance ([1]; any concentration ≧450 ppm, 10 DAT): reduced FDF at least as effectively as cane severance
Reduction of FDF compared to non-treated vines ([1]; lowest concentration tested, 10 DAT): reduced FDF by half
Percent fruit drop (dry wt/dry wt) ([3]; 45 ppm): 0.26 c percent
Percent fruit drop (dry wt/dry wt) ([3]; 450 ppm): 6.37 c percent
Percent fruit drop (dry wt/dry wt) ([3]; 4500 ppm): 50% and 50.71 a percent
Berry abscission observed in plots [3]: berry abscission was only observed in plots treated with MeJA or coronatine
Abscised berries observed ([3]; within 2 days after treatment, ≧450 ppm (2 mM)): abscised berries were observed

SMILES: NC1(C(=O)O)CC1 [VBC-30069]
FDF ([1]; 50 ppm): 0.261 cd kg
FDF ([1]; 150 ppm): 0.266 abcd kg
